This note sets out measurements from the OligoGym collection.

HELM strings list units from the 5' end as sugar, base in round brackets, then linkage (d deoxyribose, r ribose, m 2'-O-methyl, p phosphodiester). Strings are as the collection lists them; they lack the last nucleoside at the 3' end of the tested compound. [moe] = 2'-O-(2-methoxyethyl) (MOE); [sp] = phosphorothioate linkage; [m5C] = 5-methylcytosine

This data set addresses LRRK2. Nature of the data set: mouse, dose not given. The following applies: ASO.
As to “RNA1{[moe](G)[sp].[moe](A)p.[moe](A)[sp].[moe]([m5C])[sp].[moe](T)[sp].d(T)[sp].d(T)[sp].d(A)[sp].d(T)[sp].d(A)[sp].d(T)[sp].d(A)[sp].d(T)[sp].d(A)[sp].d(G)[sp].[moe](T)[sp].[moe](T)p.[moe](A)[sp].[moe](T)}$$$$ (last 3' nucleoside missing)”, the 3 h FOB score came out at 2 score 0-7.

In the case of “RNA1{[moe](A)[sp].[moe](T)p.[moe](A)[sp].[moe](G)[sp].[moe]([m5C])[sp].d(T)[sp].d(T)[sp].d([m5C])[sp].d([m5C])[sp].d(A)[sp].d([m5C])[sp].d([m5C])[sp].d(A)[sp].d([m5C])[sp].d(A)[sp].[moe](A)[sp].[moe](T)p.[moe](A)[sp].[moe](T)}$$$$ (last 3' nucleoside missing)”, the 3 h FOB score came out at 2 score 0-7.

Substance “RNA1{[moe](T)[sp].[moe](T)p.[moe](A)[sp].[moe](A)[sp].[moe](A)[sp].d(A)[sp].d(T)[sp].d([m5C])[sp].d(T)[sp].d(T)[sp].d([m5C])[sp].d(A)[sp].d(G)[sp].d(T)[sp].d(T)[sp].[moe]([m5C])[sp].[moe]([m5C])p.[moe](T)[sp].[moe](T)}$$$$ (last 3' nucleoside missing)” returned a 3 h FOB score of 0 score 0-7.

“RNA1{[moe](T)[sp].[moe](T)p.[moe]([m5C])p.[moe](A)p.[moe](G)[sp].d(T)[sp].d(T)[sp].d([m5C])[sp].d([m5C])[sp].d(T)[sp].d(T)[sp].d([m5C])[sp].d(A)[sp].d(G)[sp].d(T)[sp].[moe]([m5C])p.[moe](T)p.[moe]([m5C])[sp].[moe](A)}$$$$ (last 3' nucleoside missing)” returned a 3 h FOB score of 4 score 0-7.

Substance “RNA1{[moe](A)[sp].[moe](G)p.[moe]([m5C])p.[moe](A)p.[moe](A)[sp].d(T)[sp].d([m5C])[sp].d(A)[sp].d(T)[sp].d(T)[sp].d(G)[sp].d(G)[sp].d(T)[sp].d(A)[sp].d(G)[sp].[moe]([m5C])p.[moe](A)p.[moe](T)[sp].[moe](A)}$$$$ (last 3' nucleoside missing)” showed a 3 h FOB score of 5 score 0-7.

“RNA1{[moe](A)[sp].[moe](T)p.[moe]([m5C])[sp].[moe](A)[sp].[moe](T)[sp].d(T)[sp].d(G)[sp].d([m5C])[sp].d(T)[sp].d(G)[sp].d([m5C])[sp].d(T)[sp].d([m5C])[sp].d(A)[sp].d(T)[sp].[moe](A)[sp].[moe](T)p.[moe]([m5C])[sp].[moe](T)}$$$$ (last 3' nucleoside missing)” displayed a 3 h FOB score of 6 score 0-7.

In turn, “RNA1{[moe](G)[sp].[moe]([m5C])p.[moe]([m5C])p.[moe]([m5C])p.[moe](A)[sp].d(T)[sp].d(T)[sp].d(T)[sp].d([m5C])[sp].d(T)[sp].d(T)[sp].d([m5C])[sp].d(A)[sp].d(A)[sp].d([m5C])[sp].[moe](A)p.[moe](G)p.[moe](A)[sp].[moe](G)}$$$$ (last 3' nucleoside missing)” showed a 3 h FOB score of 0 score 0-7.

As to “RNA1{[moe](G)[sp].[moe](T)p.[moe](G)p.[moe]([m5C])p.[moe](A)[sp].d(A)[sp].d(G)[sp].d(T)[sp].d([m5C])[sp].d([m5C])[sp].d(A)[sp].d(A)[sp].d(A)[sp].d(T)[sp].d(G)[sp].[moe](T)p.[moe](G)p.[moe](T)[sp].[moe]([m5C])}$$$$ (last 3' nucleoside missing)”, the 3 h FOB score stood at 2 score 0-7.

Turning to “RNA1{[moe](T)[sp].[moe](T)p.[moe]([m5C])[sp].[moe](A)[sp].[moe](T)[sp].d(T)[sp].d([m5C])[sp].d(G)[sp].d(G)[sp].d(T)[sp].d(T)[sp].d(A)[sp].d(T)[sp].d(A)[sp].d(A)[sp].[moe](G)[sp].[moe](G)p.[moe]([m5C])[sp].[moe](A)}$$$$ (last 3' nucleoside missing)”, the 3 h FOB score was determined as 6 score 0-7.

As to “RNA1{[moe](T)[sp].[moe](G)p.[moe]([m5C])p.[moe](T)p.[moe](T)[sp].d(T)[sp].d([m5C])[sp].d(A)[sp].d(T)[sp].d(A)[sp].d(G)[sp].d([m5C])[sp].d(T)[sp].d(T)[sp].d([m5C])[sp].[moe]([m5C])p.[moe](A)p.[moe]([m5C])[sp].[moe]([m5C])}$$$$ (last 3' nucleoside missing)”, the 3 h FOB score was found to be 0 score 0-7.

“RNA1{[moe](G)[sp].[moe](T)p.[moe](G)[sp].[moe]([m5C])[sp].[moe](A)[sp].d(A)[sp].d(G)[sp].d(T)[sp].d([m5C])[sp].d([m5C])[sp].d(A)[sp].d(A)[sp].d(A)[sp].d(T)[sp].d(G)[sp].[moe](T)[sp].[moe](G)p.[moe](T)[sp].[moe]([m5C])}$$$$ (last 3' nucleoside missing)” displayed a 3 h FOB score of 4 score 0-7.

“RNA1{[moe]([m5C])[sp].[moe]([m5C])p.[moe](T)[sp].[moe](G)[sp].[moe](A)[sp].d([m5C])[sp].d(A)[sp].d(T)[sp].d(T)[sp].d(G)[sp].d([m5C])[sp].d([m5C])[sp].d(A)[sp].d([m5C])[sp].d(T)[sp].[moe]([m5C])[sp].[moe](A)p.[moe](T)[sp].[moe](G)}$$$$ (last 3' nucleoside missing)” showed a 3 h FOB score of 4 score 0-7.

The substance “RNA1{[moe](T)[sp].[moe](T)p.[moe]([m5C])[sp].[moe](A)[sp].[moe](T)[sp].d(A)[sp].d(G)[sp].d([m5C])[sp].d(T)[sp].d(T)[sp].d([m5C])[sp].d([m5C])[sp].d(A)[sp].d([m5C])[sp].d([m5C])[sp].[moe](A)[sp].[moe]([m5C])p.[moe](A)[sp].[moe](A)}$$$$ (last 3' nucleoside missing)” returned a 3 h FOB score of 5 score 0-7.

Substance “RNA1{[moe](A)[sp].[moe](T)p.[moe](T)p.[moe](G)p.[moe]([m5C])[sp].d(A)[sp].d(A)[sp].d(T)[sp].d(G)[sp].d(T)[sp].d(T)[sp].d(T)[sp].d([m5C])[sp].d(A)[sp].d(A)[sp].[moe](T)p.[moe](A)p.[moe](T)[sp].[moe](G)}$$$$ (last 3' nucleoside missing)” registered a 3 h FOB score of 1 score 0-7.

Turning to “RNA1{[moe](A)[sp].[moe](T)p.[moe](G)p.[moe]([m5C])p.[moe](T)[sp].d(T)[sp].d(T)[sp].d([m5C])[sp].d(A)[sp].d(T)[sp].d(A)[sp].d(G)[sp].d([m5C])[sp].d(T)[sp].d(T)[sp].[moe]([m5C])p.[moe]([m5C])p.[moe](A)[sp].[moe]([m5C])}$$$$ (last 3' nucleoside missing)”, the 3 h FOB score is 0 score 0-7.

Substance “RNA1{[moe](G)[sp].[moe](G)p.[moe](A)p.[moe]([m5C])p.[moe](T)[sp].d(T)[sp].d([m5C])[sp].d([m5C])[sp].d(A)[sp].d([m5C])[sp].d(A)[sp].d(T)[sp].d(T)[sp].d(A)[sp].d(T)[sp].[moe](T)p.[moe](G)p.[moe]([m5C])[sp].[moe](A)}$$$$ (last 3' nucleoside missing)” yielded a 3 h FOB score of 0 score 0-7.
